# Measurements from the OPERA property sets (Mansouri et al. 2018).
# Conditions: for log10 BCF / log10 biotransformation half-life (days): fish
Structure (SMILES),melting point,boiling point,other results
O=c1c(Cl)c(Cl)cnn1-c1ccccc1,162 °C,–,log10 vapour pressure (mmHg): -4.05
CCOC(=O)CC#N,-22.5 °C,210 °C,log10 vapour pressure (mmHg): -1.41; ready biodegradability: readily biodegradable
CCc1nc2ccccc2[nH]1,175 °C,–,–
ClCc1ccc(Cl)cc1Cl,-2.6 °C,248 °C,log10 vapour pressure (mmHg): -1.49
CC(=O)OCC(=O)[C@@]12OC(C)(C)O[C@@H]1C[C@H]1[C@@H]3CC(C=O)=C4C=C(OCCCl)CC[C@]4(C)[C@@]3(F)[C@@H](O)C[C@@]12C,181 °C,–,–
CC=CCCC,–,–,ready biodegradability: not readily biodegradable
Cc1ccc2oc(=O)ccc2c1,76.5 °C,304 °C,–
CCOC(=O)C(NC=O)C(=O)OCC,48.5 °C,–,–
SCc1ccccc1,-30 °C,194 °C,log10 vapour pressure (mmHg): -0.384
O=C(O)[C@H](O)[C@@H](O)C(=O)O,–,–,ready biodegradability: readily biodegradable
C=C(C)COC,–,68 °C,–
Cc1cc2cccc(C)c2cc1C,–,285 °C,–
N#Cc1cc([N+](=O)[O-])c(Cl)c([N+](=O)[O-])c1,141 °C,–,–
ClCc1cccc(CCl)c1,34.2 °C,252 °C,–
O=C(O)C(Cl)=C(Cl)Cl,76 °C,222 °C,–
Clc1ccc(C(c2ccc(Cl)cc2)C(Cl)(Cl)Cl)cc1,108 °C,–,log10 Henry constant (atm·m³/mol): -5.08; log10 Koa: 9.82; log10 Koc (L/kg): 5.31; log10 vapour pressure (mmHg): -6.8; ready biodegradability: not readily biodegradable; log10 BCF: 4.29; log10 biotransformation half-life (days): 1.93
CC(=O)c1cccs1,10.5 °C,214 °C,–
C=C(C)C(=O)OC(C)C,–,125 °C,–
CN(C)C(=O)c1ccccc1,44 °C,–,log10 Koc (L/kg): 1.6
Brc1ccc2c(c1)Oc1ccc(Br)cc1O2,193 °C,–,log10 vapour pressure (mmHg): -5.95
O=S(=O)(O)c1cccc2c(S(=O)(=O)O)cccc12,–,–,ready biodegradability: readily biodegradable
CN=C=O,-45 °C,39.5 °C,log10 vapour pressure (mmHg): 2.54
C=C(Cl)C#N,-65 °C,88.5 °C,–
CC(C)(C)C(O)/C(=C\c1ccc(Cl)cc1Cl)n1cncn1 (stereo not drawn),147 °C,–,log10 vapour pressure (mmHg): -4.43

Structure (SMILES),melting point,boiling point,other results
c1cc(N(CC2CO2)CC2CO2)ccc1Cc1ccc(N(CC2CO2)CC2CO2)cc1 (stereo not drawn),–,–,ready biodegradability: not readily biodegradable
CNC(=O)Oc1ccc2c(c1)[C@]1(C)CCN(C)[C@@H]1N2C,106 °C,–,–
CCOC(=O)C(C(C)=O)C(C)C (stereo not drawn),–,201 °C,–
O=C(Nc1ccccc1)NC1CCCCCC1,–,–,log10 Koc (L/kg): 2.37
CCOC(=O)c1ccc(F)cc1,26 °C,210 °C,–
CCOC(=O)C1(C(=O)OCC)CCCC1,–,210 °C,–
CC=CCC,-146 °C,36.7 °C,–
CCC(=O)C(C)(C)C,-45 °C,126 °C,–
C[Si]1(C)O[Si](C)(C)O[Si](C)(C)O[Si](C)(C)O1,17.5 °C,176 °C,log10 Henry constant (atm·m³/mol): 1.08; log10 vapour pressure (mmHg): 0.0212; log10 biotransformation half-life (days): 1.88
CCOP(=O)(OCC)OCC,-56.4 °C,216 °C,log10 Henry constant (atm·m³/mol): -7.44; log10 vapour pressure (mmHg): -0.406; ready biodegradability: not readily biodegradable; log10 BCF: 0.11; log10 biotransformation half-life (days): -1.09
NS(=O)(=O)c1cc2c(s1)SCCC2=O,222 °C,–,–
Cc1cc(=O)oc2cc(O)c(O)cc12,275 °C,–,–
FC(F)(Br)C(F)(F)Br,-110 °C,47.3 °C,log10 vapour pressure (mmHg): 2.51; ready biodegradability: not readily biodegradable
CCCC(C)CC=O (stereo not drawn),–,143 °C,–
OCCC1CCCC1,–,183 °C,–
CC(C)SSC(C)C,-69 °C,177 °C,–
C=C(C)[C@H]1CCC(C)=C[C@@H]1c1c(O)cc(CCCCC)cc1O,67 °C,–,–
CC(C)/N=c1/cc2n(-c3ccc(Cl)cc3)c3ccccc3nc-2cc1Nc1ccc(Cl)cc1,211 °C,–,–
CC(N)(CO)CO,110 °C,–,–
CCCCC(C)c1ccccc1 (stereo not drawn),–,208 °C,–
C[C@]12CC[C@H](O)CC1=CC[C@@H]1[C@@H]2CC[C@]2(C)C(=O)CC[C@@H]12,140 °C,–,–
CC(C)(C)CC(=O)OCC(=O)[C@@]1(O)CC[C@H]2[C@@H]3CCC4=CC(=O)CC[C@]4(C)[C@H]3[C@@H](O)C[C@@]21C,168 °C,–,–
COc1cccc(Cl)c1,–,194 °C,–
COc1cc(OC)nc(N=C(O)NS(=O)(=O)Nc2ccccc2C(=O)C2CC2)n1,162 °C,–,–

Structure (SMILES),melting point,boiling point,other results
Cc1ccc2[nH]c(C)cc2c1,115 °C,–,–
CC1=C[C@H]2O[C@@H]3[C@H](O)C[C@](C)([C@@]2(CO)[C@H](O)C1=O)[C@]31CO1,152 °C,–,–
OC[C@H]1O[C@H](O[C@H]2O[C@H](CO)[C@@H](O)[C@H](O)[C@H]2O)[C@H](O)[C@@H](O)[C@@H]1O,203 °C,–,–
COc1ccc2c3c1O[C@H]1[C@@H](O)C=C[C@H]4[C@@H](C2)N(C)CC[C@@]341.Cl,280 °C,–,–
NC(=O)c1c(F)c(F)c(F)c(F)c1F,147 °C,–,–
COC(=O)c1ccc(I)cc1,115 °C,–,–
c1ccc(O[Si](Oc2ccccc2)(Oc2ccccc2)Oc2ccccc2)cc1,49 °C,417 °C,–
CCCCI,-103 °C,131 °C,log10 vapour pressure (mmHg): 1.14
COC(=O)C1C2C=CC(C2)C1C(=O)OC (stereo not drawn),38 °C,–,–
C=CC1CCCCC1,–,128 °C,–
O=C(O)c1ccccc1Nc1ccccc1,184 °C,–,–
CCCCCCCCCCCCCCCCCCCCCC1CCCC1,42 °C,420 °C,–
N#CC1CC2CCC1C2 (stereo not drawn),44 °C,–,–
CCCCCCCCCC1CCCCC1,-10 °C,282 °C,log10 vapour pressure (mmHg): -2.61
Clc1ccc(-c2c(Cl)c(Cl)c(Cl)c(Cl)c2Cl)c(Cl)c1,–,–,log10 Koa: 10.5
CCCCCCCCCCCCCCCC(C)C,5.7 °C,311 °C,–
CC(=O)NO,90.5 °C,–,–
CC(C)(C)Oc1ccccc1,-24 °C,186 °C,–
CCC(C)OC(=O)CC(C)=O (stereo not drawn),–,–,ready biodegradability: readily biodegradable
COc1ccc(C)c(N)c1,47 °C,253 °C,–
CCc1ccc(C(=O)O)cc1,112 °C,–,–
CN1C(=O)C(C)(C2=CCCCC2)C(=O)N=C1O (stereo not drawn),146 °C,–,–
COc1ccc(C=O)c(OC)c1,72 °C,290 °C,–
NC(=O)N1c2ccccc2C=Cc2ccccc21,190 °C,–,–

Structure (SMILES),melting point,boiling point,other results
C=C[C@](C)(O)CC[C@@H]1[C@@]2(C)CCCC(C)(C)[C@@H]2CC[C@@]1(C)O,97 °C,–,–
O=C(O)c1ccc2c(c1)OCO2,229 °C,–,–
CCCCOC(=O)COC(=O)c1ccccc1C(=O)OCCCC,–,–,log10 Koc (L/kg): 3.7; ready biodegradability: readily biodegradable
CCCCCCCC(=O)c1ccccc1,22.8 °C,285 °C,–
COc1cc2c(cc1OC)C(CCc1ccc(Cl)cc1)N(C)CC2 (stereo not drawn),110 °C,–,–
Nc1nc2ccccc2[nH]1,230 °C,–,–
C1CS1,–,55.5 °C,log10 vapour pressure (mmHg): 2.4
CC(C)c1ccc(C(=O)O)cc1,118 °C,–,ready biodegradability: readily biodegradable
CCCCCCCOC(=O)CCCCCCC,-10.6 °C,290 °C,–
COc1cccc(CO)c1,–,252 °C,–
CC(O)CN(C)C (stereo not drawn),124 °C,124 °C,–
CC1CCCCC1C (stereo not drawn),–,126 °C,log10 biodegradation half-life (days): 1.26; log10 vapour pressure (mmHg): 1.2
CN(C)C(=O)SCCCCOc1ccccc1,40.5 °C,–,log10 vapour pressure (mmHg): -5.9
CCCCc1ccccn1,97 °C,192 °C,–
CCCCCCCCCCC=O,-4 °C,–,–
CCOC(=O)C(C)C(=O)OCC,–,201 °C,–
CCCC(C)C(C)CCC (stereo not drawn),–,162 °C,–
Nc1c(Cl)c(Cl)cc(Cl)c1Cl,107 °C,–,log10 Koc (L/kg): 3.94; log10 BCF: 2.52
CC(=O)c1ccc(C)cc1,28 °C,226 °C,ready biodegradability: readily biodegradable
CCN(CC)CCNc1ccc(CO)c2sc3ccccc3c(=O)c12,102 °C,–,–
Cc1ccc2ccccc2c1[N+](=O)[O-],81.5 °C,–,–
CCC(Br)(CC)C(=O)NC(=O)NC(C)=O,109 °C,–,–
FC(F)(F)c1cccc(C(c2ccccc2)(c2ccccc2)n2cncn2)c1,132 °C,–,–
CCCCOC(=O)c1ccccc1C(=O)O,73.5 °C,–,–

Structure (SMILES),melting point,boiling point,other results
O=C1CN(N=Cc2ccc(-c3ccc([N+](=O)[O-])cc3)o2)C(=O)N1,280 °C,–,–
CC1C=CCCC1 (stereo not drawn),–,103 °C,log10 vapour pressure (mmHg): 1.54
Nc1ccc(Br)cc1C(=O)O,220 °C,–,–
O=C(O)Cc1ccc(Cl)cc1,106 °C,–,–
CC(Oc1ccc(Oc2cnc3cc(Cl)ccc3n2)cc1)C(=O)OCC1CCCO1 (stereo not drawn),64 °C,–,–
OCC(CO)(CO)CBr,76 °C,–,–
CC[C@@H]1CN2CCc3c([nH]c4cccc(OC)c34)[C@H]2C[C@@H]1/C(=C\OC)C(=O)OC,104 °C,–,–
COc1ccc(C(=O)c2ccc(OC)cc2O)c(O)c1,140 °C,–,–
CI,-66.4 °C,42.5 °C,log10 Henry constant (atm·m³/mol): -2.28; log10 Koa: 2.16; log10 vapour pressure (mmHg): 2.61
CC1(C)[C@H](/C=C2\CCSC2=O)[C@@H]1C(=O)OCc1coc(Cc2ccccc2)c1,31 °C,–,–
CC1=CC(=O)CC1,–,158 °C,–
Cn1cnc2c1c(=O)[nH]c(=O)n2C,357 °C,–,–
CNC1(c2ccccc2Cl)CCCCC1=O.Cl (stereo not drawn),262 °C,–,–
CN1C2CCCC1CC(=O)C2,54 °C,246 °C,–
CCCCCCCCCCCCCCCCBr,18 °C,336 °C,log10 vapour pressure (mmHg): -4.31; ready biodegradability: readily biodegradable
C[C@H](CCC(=O)O)[C@H]1CC[C@H]2[C@@H]3C(=O)C[C@@H]4CC(=O)CC[C@]4(C)[C@H]3CC(=O)[C@]12C,237 °C,–,–
CCC(C(=O)OC)c1ccccc1 (stereo not drawn),77.5 °C,228 °C,–
Cc1nn(C)c(Oc2ccccc2)c1C=NOCc1ccc(C(=O)OC(C)(C)C)cc1,102 °C,–,–
FC(F)(Cl)C(F)(Cl)Cl,-35 °C,47.7 °C,log10 vapour pressure (mmHg): 2.56; ready biodegradability: not readily biodegradable; log10 BCF: 1.7
O=[N+]([O-])c1ccccc1-c1ccccc1[N+](=O)[O-],126 °C,305 °C,–
CC(C)COCc1ccccc1,–,212 °C,–
Oc1c(Cl)c(O)c(Cl)c(O)c1Cl,136 °C,–,–
O=C1OC(c2ccc(O)c3ccccc23)(c2ccc(O)c3ccccc23)c2ccccc21,254 °C,–,–
CCN(CC)c1c([N+](=O)[O-])cc(C(F)(F)F)c(N)c1[N+](=O)[O-],98 °C,–,log10 Koc (L/kg): 3.63; log10 vapour pressure (mmHg): -5.44
